According to ChEMBL document CHEMBL1144083, “Phenylvaleric acid and flavonoid glycosides from Polygonum salicifolium” (J Nat Prod, 1999):
The source made the active and inactive calls. No cut-off for these calls is given here.

Columns and labels:
Format in all cases: functional
[1] = test system: Radical scavenging activity; experiment: Antioxidant activity assessed as DPPH free radical scavenging activity by TLC autographic assay
[2] = test system: Radical scavenging activity; experiment: Antioxidant activity assessed as DPPH free radical scavenging activity at 6 ug by TLC autographic assay
[3] = test system: Radical scavenging activity; experiment: Antioxidant activity assessed as DPPH free radical scavenging activity at 4 ug by TLC autographic assay
[4] = test system: Radical scavenging activity; experiment: Antioxidant activity assessed as DPPH free radical scavenging activity at 8 ug by TLC autographic assay
[5] = test system: Radical scavenging activity; experiment: Antioxidant activity assessed as DPPH free radical scavenging activity at 2 ug by TLC autographic assay

Row | SMILES | Activity [1] | Activity [2] | Activity [3] | Activity [4] | Activity [5]
1 | O=C(O)C[C@@H](CCc1ccccc1)O[C@H]1O[C@@H](CO)[C@H](O)[C@@H](O)[C@@H]1O | inactive | – | – | – | –
2 | O=C(O[C@H]1[C@H](Oc2c(-c3ccc(O)c(O)c3)oc3cc(O)cc(O)c3c2=O)O[C@H](CO)[C@@H](O)[C@@H]1O)c1cc(O)c(O)c(O)c1 | – | Active | Active | Active | Active
3 | CCCCOC(=O)C[C@@H](CCc1ccccc1)O[C@H]1O[C@@H](CO)[C@H](O)[C@@H](O)[C@@H]1O | inactive | – | – | – | –
4 | O=c1c(O[C@@H]2O[C@H](CO)[C@H](O)[C@H](O)[C@H]2O)c(-c2ccc(O)c(O)c2)oc2cc(O)cc(O)c12 | – | Active | Active | Active | Active
5 | O=C(O)[C@H]1O[C@@H](Oc2c(-c3ccc(O)c(O)c3)oc3cc(O)cc(O)c3c2=O)[C@H](O)[C@@H](O)[C@@H]1O | – | Active | Active | Active | Active
6 | O=c1c(O[C@@H]2O[C@H](CO)[C@@H](O)[C@H](O)[C@H]2O)c(-c2ccc(O)c(O)c2)oc2cc(O)cc(O)c12 | – | Active | Active | Active | Active
7 | COc1cc(O[C@@H]2O[C@H](CO[C@@H]3O[C@H](CO)[C@@H](O)[C@H](O)[C@H]3O)[C@@H](O)[C@H](O)[C@H]2O)c(OC)c(O)c1C(=O)CCc1ccccc1 | inactive | – | – | – | –
